The test deals with T1, human androgen receptor (hAR) (Homo sapiens, UniProt P10275).
T1 construct: made in house; host or cells: baculovirus/Sf9 insect cells (crude extract)
T1 sequence (P10275 1-920): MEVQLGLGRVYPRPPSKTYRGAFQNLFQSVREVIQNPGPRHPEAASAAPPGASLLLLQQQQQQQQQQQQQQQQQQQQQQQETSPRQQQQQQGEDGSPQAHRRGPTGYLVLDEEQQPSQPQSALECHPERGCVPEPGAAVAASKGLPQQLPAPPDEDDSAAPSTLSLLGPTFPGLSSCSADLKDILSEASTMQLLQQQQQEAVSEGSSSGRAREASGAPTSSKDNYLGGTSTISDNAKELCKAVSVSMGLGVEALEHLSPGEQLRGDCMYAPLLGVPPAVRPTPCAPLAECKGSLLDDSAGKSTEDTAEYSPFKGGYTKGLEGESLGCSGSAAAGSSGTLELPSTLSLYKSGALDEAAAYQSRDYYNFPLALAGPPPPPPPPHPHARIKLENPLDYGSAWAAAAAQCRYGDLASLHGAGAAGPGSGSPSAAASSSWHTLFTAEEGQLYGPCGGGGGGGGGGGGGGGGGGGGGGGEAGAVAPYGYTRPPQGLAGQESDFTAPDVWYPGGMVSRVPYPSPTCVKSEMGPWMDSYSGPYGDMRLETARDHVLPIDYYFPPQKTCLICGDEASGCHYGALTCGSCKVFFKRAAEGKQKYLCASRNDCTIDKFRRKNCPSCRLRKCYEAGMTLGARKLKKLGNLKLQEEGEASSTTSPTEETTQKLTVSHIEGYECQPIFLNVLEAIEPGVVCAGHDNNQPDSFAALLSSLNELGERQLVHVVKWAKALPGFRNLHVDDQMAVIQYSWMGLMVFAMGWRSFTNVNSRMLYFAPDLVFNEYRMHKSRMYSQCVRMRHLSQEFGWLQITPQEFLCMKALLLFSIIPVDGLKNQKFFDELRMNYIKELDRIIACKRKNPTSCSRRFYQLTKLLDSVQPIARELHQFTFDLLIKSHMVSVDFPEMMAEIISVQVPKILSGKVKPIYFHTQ
Kind of test: Competitive binding analysis on baculovirus/Sf9 generated hAR extracts with 3H-DHT tracer. Particulars: hAR extract, 1 nM 3H-DHT, one hour at 4° C; mean of multiple tests; read-out: AR Binding IC50. How it is done: The compounds of Formula I have affinity for the androgen receptor. […] The description below describes how the assay was carried out.
Competitive binding analysis was performed on baculovirus/Sf9 generated hAR extracts in the presence or absence of different concentrations of test agent and a fixed concentration of ^3H-dihydrotestosterone (^3H-DHT) as tracer. This binding assay method is a modification of a protocol previously described (Liao S., et. al. J. Steroid Biochem. 20:11-17 1984). Briefly, progressively decreasing concentrations of compounds are incubated in the presence of hAR extract (Chang et al. P.N.A.S. Vol. 89, pp. […], 1992), hydroxylapatite, and 1 nM^3H-DHT for one hour at 4° C. Subsequently, the binding reactions are washed three times to completely remove excess unbound ^3H-DHT. hAR bound ^3H-DHT levels are determined in the presence of compounds (=i.e competitive binding) and compared to levels bound when no competitor is present (=i.e. maximum binding). Compound binding affinity to the hAR is expressed as the concentration of compound at which one half of the maximum binding is inhibited. Table II below provides the results that were obtained for selected compounds (reported data is the mean of multiple tests as shown below)

One may read the IC50 as the concentration at which inhibition is half-maximal. Consider `CC(C)CC(Oc1ccc(C#N)c(C(F)(F)F)c1)C(=O)NCc1ccncc1` (stereo not drawn) [Example 16, 2-(4-Cyano-3-trifluoromethyl-phenoxy)-4-methyl-pentanoic acid (pyridin-4-yl-methyl)-amide], for which the IC50 came out at 368 nM.
The result for `CC(C)CC(Oc1ccc(C#N)c(C(F)(F)F)c1)C(=O)N(Cc1ccccc1)C(C)C` (stereo not drawn) [Example 63, 2-(4-Cyano-3-trifluoromethyl-phenoxy)-4-methyl-pentanoic acid benzyl-isopropyl-amide] reads 482 nM.
The result for `CC(C)CC(Oc1ccc(C#N)c(C(F)(F)F)c1)C(=O)N[C@H](C)c1ccccc1` (stereo in doubt) [Example 122, 2-(4-Cyano-3-trifluoromethyl-phenoxy)-4-methyl-pentanoic acid (1-phenyl-ethyl)-amide] reads 329 nM.
As to `CCCOCCCNC(=O)C(CCC)Oc1ccc(C#N)c(C(F)(F)F)c1` (stereo not drawn) [Example 115, 2-(4-Cyano-3-trifluoromethyl-phenoxy)-pentanoic acid (3-propoxy-propyl)-amide], the IC50 came to 428 nM.
The result for “2-(4-Cyano-3-trifluoromethyl-phenoxy)-4-methyl-pentanoic acid (2H-imidazo[1,2-a]pyridin-3-yl)-methyl)amide [Example 60]” reads 318 nM; that for `CC(C)CC(Oc1ccc(C#N)c(C(F)(F)F)c1)C(=O)NCc1ccc(C(C)C)cc1` (stereo not drawn) [Example 70, 2-(4-Cyano-3-trifluoromethyl-phenoxy)-4-methyl-pentanoic acid 4-isopropyl-benzylamide], 253 nM; that for `CCCC(Oc1ccc(C#N)c(C(F)(F)F)c1)C(=O)NCCc1ccc(C)cc1` (stereo not drawn) [Example 50, 2-(4-Cyano-3-trifluoromethyl-phenoxy)-pentanoic acid-(2-p-tolyl-ethyl)-amide], 399 nM.
The result for `CCCC(Oc1ccc(C#N)c(C(F)(F)F)c1)C(=O)NCC1Cc2ccccc2CO1` (stereo not drawn) [Example 32, 2-(4-Cyano-3-trifluoromethyl-phenoxy)-pentanoic acid (isochroman-3-yl-methyl)amide] reads 407 nM; that for `CCCC(Oc1ccc(C#N)c(C(F)(F)F)c1)C(=O)NC(C)c1ccc(O)cc1` (stereo not drawn) [Example 6, 2-(4-Cyano-3-trifluoromethyl-phenoxy)-pentanoic acid [1-(4-hydroxy-phenyl)ethyl]-amide], 455 nM.
The result for `CCCC(Oc1ccc(C#N)c(C(F)(F)F)c1)C(=O)NCc1cccc2ccccc12` (stereo not drawn) [Example 77, 2-(4-Cyano-3-trifluoromethyl-phenoxy)-pentanoic acid (naphthalene-1-yl-methyl)amide] reads 292 nM; that for `COc1ccc2[nH]cc(CCNC(=O)C(CC(C)C)Oc3ccc(C#N)c(C(F)(F)F)c3)c2c1` (stereo not drawn) [Example 98, 2-(4-Cyano-3-trifluoromethyl-phenoxy)-4-methyl-pentanoic acid [2-(5-methoxy-1H-indol-3-yl)-ethyl]-amide], 279 nM.
Regarding `CCCC(Oc1ccc(C#N)c(C(F)(F)F)c1)C(=O)N(Cc1ccccc1)C(C)C` (stereo not drawn) [Example 67, 2-(4-Cyano-3-trifluoromethyl-phenoxy)-pentanoic acid benzyl-isopropyl-amide], the IC50 is 440 nM.
The result for `CSCCCNC(=O)C(CC(C)C)Oc1ccc(C#N)c(C(F)(F)F)c1` (stereo not drawn) [Example 21, 2-(4-Cyano-3-trifluoromethyl-phenoxy)-4-methyl-pentanoic acid (3-methylsulfanyl-propyl)-amide] reads 362 nM; that for `CC(C)CC(Oc1ccc(C#N)c(C(F)(F)F)c1)C(=O)N[C@@H](C)c1ccccc1` (stereo in doubt) [Example 112, 2-(4-Cyano-3-trifluoromethyl-phenoxy)-4-methyl-pentanoic acid (1-phenyl-ethyl)-amide], 329 nM.
Turning to `Cc1ncccc1CNC(=O)C(CC(C)C)Oc1ccc(C#N)c(C(F)(F)F)c1` (stereo not drawn) [Example 76, 2-(4-Cyano-3-trifluoromethyl-phenoxy)-4-methyl-pentanoic acid (2-methyl-pyridin-3-yl-methyl)-amide], the IC50 came out at 479 nM.

The values above are taken from US7507860B2 (Pfizer Inc., priority 2004, dated 2009).
